Measured values published in PMC10799935, “Discovery of a peripheral 5HT2A antagonist as a clinical candidate for metabolic dysfunction-associated steatohepatitis” (Nature Communications, 2024).
Where “and” joins values, the source holds several entries; their conditions need not be identical. Equal values may be shown once.

Columns and labels:
5HT3 = 5HT3 (Homo sapiens, UniProt P46098); assay: 5HT subtype selectivity: 5HT3; type: cell-based; conditions: concentration not given
Procedure: The derivatives were evaluated at a concentration of 1 μM for their antagonist activity on the 5HT2A receptor (Tables 1–3)[33],[34]. Human 5HT2A stably transfected HEK293 cells (a type of cell derived from kidney embryos)[20] were seeded in a 96-well plate (Costar; 3603) at a density of 9 × 10^4 in 100 μL of minimum essential medium (Welgene; LM007-86) containing 10% dialyzed fetal bovine serum (Gibco; 30067–334) and 1% penicillin/streptomycin (Gibco; 15140-122) and kept in a 37 °C incubator for 24 h. The cells were stained with 100 μL of cytosolic calcium dye using the FLIPR calcium 6 assay solution (Molecular devices, #R8190) supplemented with 2.5 mM probenecid (Sigma; P8761) and incubated for 1 h at 37 °C. After 1 h, the designated amount of the compound was treated in each well and incubated for another 1 h at 37 °C. Then, the cells were loaded in a Flexstation 3 microplate reader (Molecular Devices; FlexStaion) and 50 μL of 5 μM 5HT (serotonin hydrochloride, Sigma; H9523) was injected from a source plate (Nunc 96-well polystyrene conical bottom MicroWell Plate, Thermo; 249662) and the fluorescence intensity (Ex/Em-485nm/ 525 nm) was measured. (Supplementary Fig. 5) For determining the IC50 values of other 5HT subtypes, an Inhibition assay was performed by Eurofins Cerep (Study ID: FR095-0014987, FR095-0016438). […]

[1] = Hepatocyte stability test, human; type: in vitro ADME; conditions: both sexes, cryopreserved hepatocytes, pH 7.4, read-out: Hepatocyte stability (% remaining after 3 h)
Procedure: Hepatocyte incubations for the test compound (10 μM final concentration, n = 2 per each time point) were carried out in mouse, rat, dog, monkey and human cryopreserved hepatocytes, resuspended at a density of 0.5 million cells/ml of modified Krebs-Henseleit buffer (KHB). The information regarding the hepatocytes used in the experiment is as follows: liverPool® 10-donor mixed gender human (BioIVT, Cat.No. X008001, lot EAV), male cynomolgus monkey (BioIVT, Cat.No. M00305, lot COJ), male Beagle dog (BioIVT, Cat.No. M00205, lot USY), male Sprague Dawley rat (BioIVT, Cat.No. M00005, lot TQE) and male CD1 mouse (BioIVT, Cat.No.005052, lot LFF). In addition, the compound was also incubated with blank KHB. The final concentration of solvent (DMSO) was 0.1% of the final volume. The incubations were performed for 3 hours at 37°C and pH 7.4. Reactions were terminated at 0 and 180 minutes by the addition of 3 volumes of stop solution (acetonitrile/methanol (2:1, v/v) containing internal standard–diclofenac at 100 ng/ml). Samples (compound spiked buffer and compound spiked hepatocytes, as well as blank samples, i.e. hepatocytes with the same DMSO%) were then centrifuged and aliquots were transferred to 96-deep micronic tubes and frozen at -80 °C until LC-MS/MS analysis. […]

[2] = In vivo PK with diverse doses (5, 10, 20 mpk) for PK and PD co-relation
Procedure: In this paper, the authors based on their previous studies on 5-HT2A LKO mice and 5HT2A antagonists, try to synthesize a serial of new derivatives based on the compound 2 (Clarinex) to develop oral drug candidates of […]
Then the authors tested the pharmacokinetics of compound 11c both in rats and dogs by iv and gavage administration. Besides, the tissue distribution of compound 11c was also determined by […]
NASH and fibrosis. The following questions may need to be answered by the authors.
Comment 1: In general, after gavage administration for 8 weeks (page 178-179) or 12 weeks (page 274-275), the compound 11c mainly distributed in digestive track especially in intestines with comparatively lower plasma drug concentration as well as in the other organs.
Response: We appreciate the Reviewer’s comment. For most oral drugs, the high level of total radioactivity is often observed in gastrointestinal tract in QWBA (Quantitative Whole Body Autoradiography). In the study of QWBA for compound 11c, tissue distribution was evaluated in multiple time points. Total radioactivities in stomach and small intestine were high at early time points and decreased at late time points. […]

CYP1A2 = CYP1A2 (Homo sapiens, UniProt P05177); assay: in vitro
CYP1A2, sequence (P05177 whole entry): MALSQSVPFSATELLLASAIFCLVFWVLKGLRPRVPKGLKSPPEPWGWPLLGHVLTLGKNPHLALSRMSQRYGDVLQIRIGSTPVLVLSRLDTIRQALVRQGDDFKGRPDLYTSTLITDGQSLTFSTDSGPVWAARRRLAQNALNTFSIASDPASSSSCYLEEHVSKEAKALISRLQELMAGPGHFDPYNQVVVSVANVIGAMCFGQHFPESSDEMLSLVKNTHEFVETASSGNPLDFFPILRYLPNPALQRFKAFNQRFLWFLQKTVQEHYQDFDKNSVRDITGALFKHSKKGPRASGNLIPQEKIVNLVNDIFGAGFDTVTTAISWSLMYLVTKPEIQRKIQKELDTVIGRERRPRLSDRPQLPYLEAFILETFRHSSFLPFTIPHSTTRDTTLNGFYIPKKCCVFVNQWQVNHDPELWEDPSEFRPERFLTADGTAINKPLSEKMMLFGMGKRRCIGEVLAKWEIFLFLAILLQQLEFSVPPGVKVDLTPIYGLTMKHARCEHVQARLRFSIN

5HT3, sequence (P46098 24-478): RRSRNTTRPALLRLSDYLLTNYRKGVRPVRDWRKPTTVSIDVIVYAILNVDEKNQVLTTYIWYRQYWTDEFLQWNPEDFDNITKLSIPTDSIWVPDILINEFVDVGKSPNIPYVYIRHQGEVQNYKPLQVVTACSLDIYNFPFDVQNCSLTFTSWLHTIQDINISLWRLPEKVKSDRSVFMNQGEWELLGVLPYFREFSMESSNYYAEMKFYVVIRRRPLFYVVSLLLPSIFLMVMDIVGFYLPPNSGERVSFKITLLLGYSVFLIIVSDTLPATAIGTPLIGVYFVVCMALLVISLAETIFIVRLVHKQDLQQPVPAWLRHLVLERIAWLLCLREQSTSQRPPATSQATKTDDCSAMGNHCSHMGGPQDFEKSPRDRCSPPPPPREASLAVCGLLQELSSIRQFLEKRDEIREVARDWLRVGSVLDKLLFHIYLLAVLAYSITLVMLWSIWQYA

With `Cc1nc2n(c(=O)c1CCN1CCC(=C3c4ccc(Cl)cc4CCc4cccnc43)CC1)CCCC2O` (stereo not shown) [Compound 11c] the “Selectivity 3: % inhibition” value (5HT3) was -1%, the remaining at 3 h, 10 μM [1] was 94% and the “concentration present up to 8 hrs” value [2] was “more than 20 nM and > 10 ng/mL”. It also gave an inhibition at 10 µM (CYP1A2) of under 1%.
